Measurements: patent US6875760B2 (Novo Nordisk A/S, priority 1999, dated 2005)

Biological target: T1, human glucagon receptor (Homo sapiens, UniProt P47871)
T1 construct: expressed in transfected cells; host or cells: BHK (baby hamster kidney) cells
Assay: Glucagon Binding Assay (III)
Conditions: BHK cell membranes, WGA SPA beads, 125I-glucagon; read-out: Glu Bd Assay (III) IC50
Method in brief: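 Membranes from BHK cells transfected with the human receptor, prepared at 4 °C, were used in a WGA-bead scintillation proximity binding format. Plates were shaken for 4 hours, left to settle 8–48 hours and then counted. Non-specific binding was defined with 500 nM glucagon.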

T1 sequence (P47871 26-477): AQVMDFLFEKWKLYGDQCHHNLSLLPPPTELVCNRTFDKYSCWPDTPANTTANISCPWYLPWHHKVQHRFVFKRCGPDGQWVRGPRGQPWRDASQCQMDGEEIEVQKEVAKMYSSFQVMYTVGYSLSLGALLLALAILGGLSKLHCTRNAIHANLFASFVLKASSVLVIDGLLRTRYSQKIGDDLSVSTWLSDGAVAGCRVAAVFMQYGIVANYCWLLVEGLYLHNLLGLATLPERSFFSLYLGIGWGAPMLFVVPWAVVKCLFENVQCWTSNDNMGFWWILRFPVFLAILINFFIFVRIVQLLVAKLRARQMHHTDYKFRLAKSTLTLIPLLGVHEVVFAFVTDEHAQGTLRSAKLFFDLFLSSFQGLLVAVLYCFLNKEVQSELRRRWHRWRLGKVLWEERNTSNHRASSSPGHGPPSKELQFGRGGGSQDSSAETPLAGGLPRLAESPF

`CC(C)(C)c1ccc(N(Cc2ccc(C(=O)Nc3nn[nH]n3)cc2)C(=O)Nc2cccc(C#N)c2)cc1` [Example 295, 4-[1-(4-tert-Butylphenyl)-3-(3-cyanophenyl)ureidomethyl]-N-(2H-tetrazol-5-yl)benzamide] and `CC(C)(C)c1ccc(N(Cc2ccc(C(=O)Nc3nn[nH]n3)cc2)C(=O)Nc2cccc(Cl)c2)cc1` [Example 296, 4-[1-(4-tert-Butylphenyl)-3-(3-chlorophenyl)ureidomethyl]-N-(2H-tetrazol-5-yl)benzamide] are within 1.5-fold of each other in IC50: 279 nM for the first, 304 nM for the second.

First: CC(=O)c1cccc(NC(=O)N(Cc2ccc(C(=O)Nc3nn[nH]n3)cc2)c2ccc(C(C)(C)C)cc2)c1 [Example 297, 4-[3-(3-Acetylphenyl)-1-(4-tert-butylphenyl)ureidomethyl]-N-(2H-tetrazol-5-yl)benzamide]
Second: CC(O)c1cccc(NC(=O)N(Cc2ccc(C(=O)Nc3nn[nH]n3)cc2)c2ccc(C(C)(C)C)cc2)c1 (centres unmarked) [Example 309, 4-{1-(4-tert-Butylphenyl)-3-[3-(1-hydroxyethyl)phenyl]ureidomethyl}-N-(2H-tetrazol-5-yl)benzamide]
The IC50 of the first is 6.5-fold lower: 87 nM for the first, 566 nM for the second.

First: CSc1ccc(NC(=O)N(Cc2ccc(C(=O)Nc3nn[nH]n3)cc2)c2ccc(C3CCCCC3)cc2)cc1 [Example 298, 4-[1-(4-Cyclohexylphenyl)-3-(4-methylsulfanylphenyl)ureidomethyl]-N-(2H-tetrazol-5-yl)benzamide]
Second: CSc1cccc(NC(=O)N(Cc2ccc(C(=O)Nc3nn[nH]n3)cc2)c2ccc(C3CCCCC3)cc2)c1 [Example 302, 4-[1-(4-Cyclohexylphenyl)-3-(3-methylsulfanylphenyl)ureidomethyl]-N-(2H-tetrazol-5-yl)benzamide]
The IC50 of the first is 1.6-fold lower: 38 nM for the first, 62 nM for the second. The first is the more potent here.

`O=C(Nc1nn[nH]n1)c1ccc(CN(C(=O)Nc2cccc(SCC3CC3)c2)c2ccc(C3CCCCC3)cc2)cc1` [Example 299, 4-[1-(4-Cyclohexylphenyl)-3-(3-cyclopropylmethylsulfanylphenyl)ureidomethyl]-N-(2H-tetrazol-5-yl)benzamide] and `O=C(Nc1nn[nH]n1)c1ccc(CN(C(=O)Nc2cccc(SC3CCCC3)c2)c2ccc(C3CCCCC3)cc2)cc1` [Example 300, 4-[1-(4-Cyclohexylphenyl)-3-(3-cyclopentylsulfanylphenyl)ureidomethyl]-N-(2H-tetrazol-5-yl)benzamide] are within 1.5-fold of each other in IC50: 171 nM for the first, 197 nM for the second.

Going from `O=C(Nc1nn[nH]n1)c1ccc(CN(C(=O)Nc2ccc(SC(F)(F)F)cc2)c2ccc(C3CCCCC3)cc2)cc1` [Example 301, 4-[1-(4-Cyclohexylphenyl)-3-(4-trifluoromethylsulfanylphenyl)ureidomethyl]-N-(2H-tetrazol-5-yl)benzamide] to `O=C(Nc1nn[nH]n1)c1ccc(CN(C(=O)Nc2cccc(S(=O)(=O)C(F)(F)F)c2)c2ccc(C3CCCCC3)cc2)cc1` [Example 303, 4-[1-(4-Cyclohexylphenyl)-3-(3-trifluoromethylsulfonylphenyl)ureidomethyl]-N-(2H-tetrazol-5-yl)benzamide], the IC50 rises from 35 nM to 53 nM (1.5-fold).

First: O=C(Nc1nn[nH]n1)c1ccc(CN(C(=O)Nc2cc(Cl)cc(Cl)c2)c2ccc(C3CCCCC3)cc2)cc1 [Example 304, 4-[1-(4-Cyclohexylphenyl)-3-(3,5-dichlorophenyl)ureidomethyl]-N-(2H-tetrazol-5-yl)benzamide]
Second: O=C(Nc1nn[nH]n1)c1ccc(CN(C(=O)Nc2cc(Cl)cc(Cl)c2)c2ccc(N3CCCCC3)cc2)cc1 [Example 316, 4-[3-(3,5-Dichlorophenyl)-1-(4-piperidin-1-ylphenyl)ureidomethyl]-N-(2H-tetrazol-5-yl)benzamide]
The IC50 of the first is 12-fold lower: 45 nM for the first, 547 nM for the second.

`Cc1ccc(NC(=O)N(Cc2ccc(C(=O)Nc3nn[nH]n3)cc2)c2ccc(C3CCCCC3)cc2)cc1S(C)(=O)=O` [Example 305, 4-[1-(4-Cyclohexylphenyl)-3-(3-methylsulfonyl-4-methylphenyl)ureidomethyl]-N-(2H-tetrazol-5-yl)benzamide] and `CS(=O)(=O)c1cc(NC(=O)N(Cc2ccc(C(=O)Nc3nn[nH]n3)cc2)c2ccc(C3CCCCC3)cc2)ccc1OC(F)(F)F` [Example 314, 4-[1-(4-Cyclohexylphenyl)-3-(3-methylsulfonyl-4-trifluoromethoxyphenyl)ureidomethyl]-N-(2H-tetrazol-5-yl)benzamide] are within 1.5-fold of each other in IC50: 55 nM for the first, 62 nM for the second.

Compared with `CC(O)c1cccc(NC(=O)N(Cc2ccc(C(=O)Nc3nn[nH]n3)cc2)c2ccc(C3CCCCC3)cc2)c1` (centres unmarked) [Example 306, 4-{1-(4-Cyclohexylphenyl)-3-[3-(1-hydroxyethyl)phenyl]ureidomethyl}-N-(2H-tetrazol-5-yl)benzamide], `CS(=O)(=O)c1ccc(NC(=O)N(Cc2ccc(C(=O)Nc3nn[nH]n3)cc2)c2ccc(C3CCCCC3)cc2)s1` [Example 320, 4-[1-(4-Cyclohexylphenyl)-3-(5-methylsulfonylthiophen-2-yl)ureidomethyl]-N-(2H-tetrazol-5-yl)benzamide] is 7.5-fold lower in IC50: 209 nM for the first, 28 nM for the second.

Going from `O=C(Nc1nn[nH]n1)c1ccc(CN(C(=O)Nc2ccc(OC(F)(F)F)cc2)c2ccc(C3=CCCCC3)cc2)cc1` [Example 307, 4-[1-(4-Cyclohex-1-enylphenyl)-3-(4-trifluoromethoxyphenyl)ureidomethyl]-N-(2H-tetrazol-5-yl)benzamide] to `O=C(Nc1nn[nH]n1)c1ccc(CN(C(=O)Nc2cccc(C(F)(F)F)c2)c2ccc(C3=CCCCC3)cc2)cc1` [Example 326, 4-[1-(4-Cyclohex-1-enylphenyl)-3-(3-trifluoromethylphenyl)ureidomethyl]-N-(2H-tetrazol-5-yl)benzamide], the IC50 falls from 50 nM to 21 nM (2.4-fold). The second is the more potent here.

`O=C(Nc1nn[nH]n1)c1ccc(CN(C(=O)Nc2cccc([N+](=O)[O-])c2)c2ccc(C3=CCCCC3)cc2)cc1` [Example 308, 4-[1-(4-Cyclohex-1-enylphenyl)-3-(3-nitrophenyl)ureidomethyl]-N-(2H-tetrazol-5-yl)benzamide] and `CS(=O)(=O)c1cccc(NC(=O)N(Cc2ccc(C(=O)Nc3nn[nH]n3)cc2)c2ccc(C3=CCCCC3)cc2)c1` [Example 310, 4-[1-(4-Cyclohex-1-enylphenyl)-3-(3-methylsulfonylphenyl)ureidomethyl]-N-(2H-tetrazol-5-yl)benzamide] are the same in IC50: 61 nM for the first, 61 nM for the second.

Compared with `CC(C)(C)[Si](C)(C)OCc1cc(NC(=O)N(Cc2ccc(C(=O)Nc3nn[nH]n3)cc2)c2ccc(C3CCCCC3)cc2)ccc1OC(F)(F)F` [Example 311, 4-[3-[3-(tert-Butyldimethylsilanyloxymethyl)-4-trifluoromethoxyphenyl]-1-(4-cyclohexylphenyl)ureidomethyl]-N-(2H-tetrazol-5-yl)benzamide], `COc1cc(NC(=O)N(Cc2ccc(C(=O)Nc3nn[nH]n3)cc2)c2ccc(C3CCCCC3)cc2)cc(C(F)(F)F)c1` [Example 319, 4-[1-(4-Cyclohexylphenyl)-3-(3-methoxy-5-trifluoromethylphenyl)ureidomethyl]-N-(2H-tetrazol-5-yl)benzamide] is 1.8-fold lower in IC50: 32 nM for the first, 18 nM for the second. The second is the more potent here.

First: CC(C)(C)c1ccc(N(Cc2ccc(C(=O)Nc3nn[nH]n3)cc2)C(=O)Nc2ccc(OC(F)(F)F)c(S(C)(=O)=O)c2)cc1 [Example 312, 4-[1-(4-tert-Butylphenyl)-3-(3-methylsulfonyl-4-trifluoromethoxyphenyl)ureidomethyl]-N-(2H-tetrazol-5-yl)benzamide]
Second: CC(C)(C)C1CCC(N(Cc2ccc(C(=O)Nc3nn[nH]n3)cc2)C(=O)Nc2ccc(OC(F)(F)F)c(S(C)(=O)=O)c2)CC1 (centres unmarked) [Example 313, 4-[1-(4-tert-Butylcyclohexyl)-3-(3-methylsulfonyl-4-trifluoromethoxyphenyl)ureidomethyl]-N-(2H-tetrazol-5-yl)benzamide]
The IC50 of the first is 2.6-fold higher: 46 nM for the first, 18 nM for the second. The second is the more potent here.

First: CSc1cccc(NC(=O)N(Cc2ccc(C(=O)Nc3nn[nH]n3)cc2)c2ccc(N3CCCCC3)cc2)c1 [Example 317, 4-[3-(3-Methylsulfanylphenyl)-1-(4-piperidin-1-ylphenyl)ureidomethyl]-N-(2H-tetrazol-5-yl)benzamide]
Second: O=C(Nc1nn[nH]n1)c1ccc(CN(C(=O)Nc2ccc(OC(F)(F)F)cc2)c2ccc(N3CCCCC3)cc2)cc1 [Example 318, 4-[1-(4-Piperidin-1-ylphenyl)-3-(4-trifluoromethoxyphenyl)ureidomethyl]-N-(2H-tetrazol-5-yl)benzamide]
The IC50 of the first is 3.2-fold higher: 788 nM for the first, 247 nM for the second.

First: CS(=O)(=O)c1cc(NC(=O)N(Cc2ccc(C(=O)Nc3nn[nH]n3)cc2)c2ccc(C3CCCCC3)cc2)cc(S(C)(=O)=O)c1 [Example 321, 4-[3-(3,5-Bis(methylsulfonyl)phenyl)-1-(4-cyclohexylphenyl)ureidomethyl]-N-(2H-tetrazol-5-yl)benzamide]
Second: O=C(Nc1nn[nH]n1)c1ccc(CN(C(=O)NCCc2ccccc2)c2ccc(C3CCCCC3)cc2)cc1 [Example 323, 4-[1-(4-Cyclohexylphenyl)-3-phenethylureidomethyl]-N-(2H-tetrazol-5-yl)benzamide]
The IC50 of the first is 9.4-fold higher: 960 nM for the first, 102 nM for the second. The second is the more potent here.

Going from `CN(c1ccccc1)S(=O)(=O)c1cccc(NC(=O)N(Cc2ccc(C(=O)NCCC(=O)O)cc2)c2ccc(C3CCCCC3)cc2)c1` [Example 322, 3-(4-{1-(4-cyclohexylphenyl)-3-[3-(methylphenylsulfamoyl)phenyl]ureidomethyl}benzoylamino)propionic acid] to `O=C(Nc1nn[nH]n1)c1ccc(CN(C(=O)Nc2ccc(Cl)c(Cl)c2)c2ccc(C3=CCCCC3)cc2)cc1` [Example 325, 4-[1-(4-Cyclohex-1-enylphenyl)-3-(3,4-dichlorophenyl)ureidomethyl]-N-(2H-tetrazol-5-yl)benzamide], the IC50 falls from 41 nM to 25 nM (1.6-fold).

In the case of `CC(C)(C)C1CCC(N(Cc2ccc(C(=O)Nc3nn[nH]n3)cc2)C(=O)NCCc2ccccc2)CC1` (centres unmarked) [Example 324, 4-[1-(4-tert-Butylcyclohexyl)-3-phenethylureidomethyl]-N-(2H-tetrazol-5-yl)benzamide], the IC50 is reported as 277 nM.

Same assay, conditions: value printed in the text of Example 315; read-out: Glu bd assay III

`CS(=O)(=O)c1cc(NC(=O)N(Cc2ccc(C(=O)Nc3nn[nH]n3)cc2)c2ccc(C3=CCCCC3)cc2)ccc1OC(F)(F)F` [Example 315, 4-[1-(4-Cyclohex-1-enylphenyl)-3-(3-methylsulfonyl-4-trifluoromethoxyphenyl)ureidomethyl]-N-(2H-tetrazol-5-yl)benzamide] was tested, and the IC50 was 22 nM.
